Measured values published in the supplement of paper PMC10307832.

How the values were obtained:
Assay in all cases: relative viability (nuclei count vs DMSO), 5 days (fraction); higher = more cells survive
Linsitinib = compound: C[C@]1(O)C[C@@H](c2nc(-c3ccc4ccc(-c5ccccc5)nc4c3)c3c(N)nccn32)C1 [Linsitinib]
Method in brief: (§1)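 After an overnight hold at 37 °C, lung cancer cell lines in 1536-well plates were pinned with five library-drug doses (not always all listed), each √10 from the next, on vehicle-anchored plates. The cells stayed 5 days without fresh medium, then a one-step fix, permeabilisation and Hoechst stain preceded 4× imaging and MetaXpress nuclear counts. A plate passed only with control CV under 25% and at least one doubling. Viability is the median, over plates, of treated-well nuclei relative to vehicle-well nuclei.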

Ispinesib = compound: Cc1ccc(C(=O)N(CCCN)[C@@H](c2nc3cc(Cl)ccc3c(=O)n2Cc2ccccc2)C(C)C)cc1 [Ispinesib]
Method in brief: as §1

Linsitinib + Palbociclib = compound: C[C@]1(O)C[C@@H](c2nc(-c3ccc4ccc(-c5ccccc5)nc4c3)c3c(N)nccn32)C1 [Linsitinib] + CC(=O)c1c(C)c2cnc(Nc3ccc(N4CCNCC4)cn3)nc2n(C2CCCC2)c1=O [Palbociclib] (partner 0.5 µM)
Method in brief: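 Five library-drug doses in √10 steps were combined with a fixed anchor-drug dose, or a single drug was given alone, by pin tool to lung cancer cell lines in 1536-well plates the day after seeding. Nuclei were stained and counted after 5 days. Relative viability is the nuclei count in treated wells over that in vehicle wells, taken as the median of duplicate plates.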

UMC-11
relative viability (Linsitinib; 0.01 µM): 0.975
relative viability (Linsitinib; 0.03162 µM): 0.854
relative viability (Linsitinib; 0.1 µM): 1.02
relative viability (Linsitinib; 0.3162 µM): 0.546
relative viability (Linsitinib; 1 µM): 0.875
relative viability (Linsitinib; 1 µM, anchor plate): 1.01
relative viability (Ispinesib; 0.001 µM): 1.01
relative viability (Ispinesib; 0.003162 µM): 1.02
relative viability (Ispinesib; 0.01 µM): 0.835
relative viability (Ispinesib; 0.03162 µM): 0.32
relative viability (Ispinesib; 0.1 µM): 0.264
relative viability (Linsitinib + Palbociclib; first compound 0.01 µM): 0.303
relative viability (Linsitinib + Palbociclib; first compound 0.03162 µM): 0.301
relative viability (Linsitinib + Palbociclib; first compound 0.1 µM): 0.33
relative viability (Linsitinib + Palbociclib; first compound 0.3162 µM): 0.322
relative viability (Linsitinib + Palbociclib; first compound 1 µM): 0.332
